Among the test systems are SK-MEL-5 melanoma; HOP-92 NSCLC; SF-268 CNS; MDA-N; SNB-75 CNS; UACC-62 melanoma; UACC-257 melanoma; SNB-19 CNS; MDA-MB-435; OVCAR-3 ovarian; IGROV1 ovarian; U251 CNS; OVCAR-5 ovarian; EKVX NSCLC; DU-145 prostate; LOX IMVI melanoma; A498 renal; NCI-H226 lung; RPMI-8226 leukemia.
Common to all, as to test: growth of human tumour cells (NCI), 48 h

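Cultured in 96-well plates, cells were exposed to test compound for 48 hours across five concentrations. TGI: concentration producing complete growth inhibition.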

Turning to `N#CC1(C#N)C(c2ccccc2)C=CC(c2ccc([N+](=O)[O-])cc2)C1(C#N)C#N` (configuration not stated), the TGI in the assay with SK-MEL-5 melanoma was determined as 22.9 µM; in the assay on HOP-92 NSCLC, 9.88 µM; in the assay on SF-268 CNS it was 51.6 µM; in the assay on MDA-N, 17 µM; in the assay with SNB-75 CNS it was 47.7 µM; in the assay on UACC-62 melanoma, 24.8 µM. The TGI came to 30.2 µM in the assay on UACC-257 melanoma; 34.1 µM in the assay on SNB-19 CNS; 16.3 µM with MDA-MB-435; 23.2 µM in the assay on OVCAR-3 ovarian; 27.8 µM in the assay with IGROV1 ovarian; 53 µM in the assay on U251 CNS. In addition, the TGI was 31.9 µM with OVCAR-5 ovarian; 28.6 µM with EKVX NSCLC; 27.3 µM in the assay with DU-145 prostate; 6.87 µM in the assay with LOX IMVI melanoma; 32.1 µM with A498 renal; over 57.5 µM in the assay on NCI-H226 lung. This compound returned a TGI in the assay with RPMI-8226 leukemia of over 25.6 µM.
`CN1CCc2cc(N)cc3c2C1Cc1ccc2c(c1-3)OCO2` (configuration not stated): the TGI is 49.8 µM in the assay with SK-MEL-5 melanoma; 66.9 µM with HOP-92 NSCLC; over 100 µM in the assay on SF-268 CNS; over 100 µM in the assay on MDA-N; over 91.5 µM in the assay on SNB-75 CNS; 70.5 µM in the assay on UACC-62 melanoma. The TGI was over 64.6 µM in the assay with UACC-257 melanoma; over 100 µM with SNB-19 CNS; over 100 µM in the assay on MDA-MB-435; over 76.5 µM in the assay with OVCAR-3 ovarian; 58.5 µM with IGROV1 ovarian; over 100 µM with U251 CNS. The TGI is over 77.7 µM with OVCAR-5 ovarian; over 100 µM with EKVX NSCLC; 96.9 µM in the assay with DU-145 prostate; 37.2 µM in the assay on LOX IMVI melanoma; over 100 µM in the assay with A498 renal; 83.2 µM in the assay with NCI-H226 lung. Moreover, the TGI with RPMI-8226 leukemia turned out to be 46.9 µM.
Consider `COC(=O)[C@@H]1OC(C)(c2ccccc2)O[C@H]1C(=O)OC`, for which the TGI in the assay on SK-MEL-5 melanoma, in the assay on HOP-92 NSCLC, in the assay on SF-268 CNS, with MDA-N, in the assay with SNB-75 CNS and in the assay with UACC-62 melanoma was over 100 µM in each case. In addition, the TGI with UACC-257 melanoma, in the assay on SNB-19 CNS, with MDA-MB-435, with OVCAR-3 ovarian, in the assay with IGROV1 ovarian and in the assay on U251 CNS was over 100 µM in each case. Also, the TGI in the assay with OVCAR-5 ovarian, in the assay on EKVX NSCLC, in the assay with DU-145 prostate, in the assay on LOX IMVI melanoma, with A498 renal and with NCI-H226 lung was over 100 µM in each case. Further, the TGI in the assay on RPMI-8226 leukemia is over 100 µM.
For the compound `c1cc(C[S+]2CCCC2)sc1C[S+]1CCCC1`, the TGI with SK-MEL-5 melanoma, in the assay on HOP-92 NSCLC, with SF-268 CNS, with MDA-N, with SNB-75 CNS and in the assay with UACC-62 melanoma was over 100 µM throughout. The TGI in the assay on UACC-257 melanoma, in the assay on SNB-19 CNS, in the assay with MDA-MB-435, in the assay on OVCAR-3 ovarian, with IGROV1 ovarian and in the assay with U251 CNS was over 100 µM in each case. The TGI in the assay on OVCAR-5 ovarian, with EKVX NSCLC, in the assay with DU-145 prostate, with LOX IMVI melanoma, in the assay with A498 renal and with NCI-H226 lung was over 100 µM in each case. This compound gave a TGI in the assay on RPMI-8226 leukemia of over 100 µM.
In the case of `O=C1COCCN1C(=O)c1ccccc1Cl`, the TGI in the assay on SK-MEL-5 melanoma, with HOP-92 NSCLC, in the assay on SF-268 CNS, in the assay with MDA-N, with SNB-75 CNS and in the assay with UACC-62 melanoma was over 100 µM each time. Also, the TGI with UACC-257 melanoma, in the assay with SNB-19 CNS, with MDA-MB-435, with OVCAR-3 ovarian, with IGROV1 ovarian and in the assay on U251 CNS was over 100 µM in each case. Further, the TGI in the assay on OVCAR-5 ovarian, in the assay on EKVX NSCLC, with DU-145 prostate, in the assay on LOX IMVI melanoma, with A498 renal and in the assay on NCI-H226 lung was over 100 µM throughout. In addition, the TGI with RPMI-8226 leukemia was over 100 µM.
For the compound `CCOC(=O)c1cc(C#N)[nH]c1-c1ccsc1`, the TGI was over 100 µM with SK-MEL-5 melanoma; over 100 µM in the assay on HOP-92 NSCLC; 57.1 µM in the assay on SF-268 CNS; over 100 µM in the assay on MDA-N; 97.4 µM in the assay with SNB-75 CNS; over 100 µM with UACC-62 melanoma. For the same compound, the TGI in the assay on UACC-257 melanoma is over 100 µM; in the assay on SNB-19 CNS, over 100 µM; in the assay with MDA-MB-435, 51.9 µM; with OVCAR-3 ovarian, 96 µM; with IGROV1 ovarian, over 100 µM; with U251 CNS, 87.8 µM. Besides, the TGI was over 100 µM in the assay on OVCAR-5 ovarian; 84 µM in the assay with EKVX NSCLC; 58.8 µM in the assay on DU-145 prostate; over 100 µM in the assay on LOX IMVI melanoma; over 100 µM with A498 renal; over 100 µM with NCI-H226 lung. In the assay on RPMI-8226 leukemia, this compound had a TGI of 65.6 µM.
As to `CC1C(O)Oc2cc3c(cc2C1c1ccccc1O)OCO3` (configuration not stated), the TGI is 98.5 µM in the assay with SK-MEL-5 melanoma; 47.2 µM with HOP-92 NSCLC; over 100 µM in the assay on SF-268 CNS; over 100 µM in the assay on MDA-N; 87.4 µM in the assay with SNB-75 CNS; over 100 µM in the assay on UACC-62 melanoma. For the same compound, the TGI in the assay with UACC-257 melanoma was over 100 µM; with SNB-19 CNS, over 100 µM; in the assay on MDA-MB-435 it was over 100 µM; with OVCAR-3 ovarian, 99 µM; in the assay on IGROV1 ovarian, over 100 µM; in the assay with U251 CNS, over 100 µM. Besides, the TGI was over 100 µM in the assay on OVCAR-5 ovarian; over 100 µM with EKVX NSCLC; over 100 µM in the assay with DU-145 prostate; over 100 µM in the assay on LOX IMVI melanoma; 82.7 µM with A498 renal; 69.2 µM with NCI-H226 lung. In addition, the TGI in the assay on RPMI-8226 leukemia stood at 48.1 µM.
For the compound `COc1cccc(Nc2nc(N)nc(N)c2N=O)c1`, the TGI in the assay with SK-MEL-5 melanoma is 39.1 µM; in the assay with HOP-92 NSCLC, 40 µM; in the assay on SF-268 CNS, over 100 µM; with MDA-N, over 100 µM; in the assay with SNB-75 CNS, 91.1 µM; in the assay on UACC-62 melanoma, 38.8 µM. Also, the TGI was 56.9 µM in the assay on UACC-257 melanoma; over 100 µM in the assay with SNB-19 CNS; 39.9 µM with MDA-MB-435; over 100 µM in the assay on OVCAR-3 ovarian; 94 µM with IGROV1 ovarian; over 100 µM in the assay on U251 CNS. Further, the TGI with OVCAR-5 ovarian is over 100 µM; in the assay with EKVX NSCLC it was over 100 µM; in the assay with DU-145 prostate, 36.7 µM; with LOX IMVI melanoma, 32.6 µM; in the assay with A498 renal, 47.7 µM; in the assay on NCI-H226 lung, 90.9 µM. The TGI in the assay with RPMI-8226 leukemia is 60.6 µM.

(Values after PubChem BioAssay (NCI).)
